Measurements as given in US11413267B2, “Methods and compositions for inhibition of ATR and FANCD2 activation” (priority 2012, dated 2022).

Legend:
DNA replication = test: EdU incorporation assay of DNA replication; type: cell-based
Method: DNA replication was measured using a Click-it EdU assay kit, which is based on incorporation of the thymidine analogue 5-ethynyl-2'-deoxyuridine (EdU) into DNA during replication (Invitrogen). Then, 10 μM EdU was added to the cell culture medium 30 min before the cells were harvested and fixed in 4% paraformaldehyde. After cycloaddition, EdU was detected with Alexa Fluor 647 using click reaction catalyzed by Cu (II), and the DNA content was stained by CellCycle 405-blue. […] An FITC Annexin V apoptosis detection kit was used to characterize the phenotype of cell death based on PI and Annexin V double staining (BD Pharmingen, San Diego, Calif.). Fluorescence-labeled cells were subsequently analyzed by the BD LSR II flow cytometer with a suitable selection of excitation and emission wavelengths. The percentages of different fluorescent cells were analyzed using WinMDI Ver. 2.9.

MDA-MB-231 cells = test: Mitotic entry assay (phospho-histone H3 Ser10, nocodazole trap, flow cytometry); type: cell-based, human
Text: Of these, the G2/M checkpoint involves ATM and ATR in collaboration, whereas the S/M checkpoint is mediated solely by ATR. To maintain genetic integrity, ATR can prevent premature mitotic entry in the event of incomplete DNA replication or unrepaired DNA damage. In order to evaluate the effect of benzopyran-4-one derivatives on these ATR-associated DNA damage checkpoints, we observed the effect of benzopyran-4-one derivatives on mitotic entry following hydroxyurea or cisplatin treatment.
DNA replication was measured using a Click-it EdU assay kit, which is based on incorporation of the thymidine analogue 5-ethynyl-2′-deoxyuridine (EdU) into DNA during replication (Invitrogen). Then, 10 μM EdU was added to the cell culture medium 30 min before the cells were harvested and fixed in 4% paraformaldehyde. After cycloaddition, EdU was detected with Alexa Fluor 647 using click reaction catalyzed by Cu (II), and the DNA content was stained by CellCycle 405-blue. To assay the mitotic entry, cells were treated with the indicated drugs and trapped in 70 nM nocodazole for 16 h, and antibodies against phospho-histone H3 Ser10 and PI were used to stain the mitotic cells and DNA content, respectively. An FITC Annexin V apoptosis detection kit was used to characterize the phenotype of cell death based on PI and Annexin V double staining (BD Pharmingen, San Diego, Calif.). Fluorescence-labeled cells were subsequently analyzed by the BD LSR II flow cytometer with a suitable selection of excitation and emission wavelengths. The percentages of different fluorescent cells were analyzed using WinMDI Ver. 2.9.

[1] = system: A549 cells, MDA-MB-231 cells; test: Cancer cell growth at low doses (FIGS. 19, 20); type: cell-based, human; conditions: low doses (I-1 0.25-1 μM, II-1 0.1-0.4 μM)
[2] = system: GFP-expressing retrovirus (Lenti-GFP); test: Lenti-GFP infection of HEK293T cells; type: cell-based, lentivirus
Method: In addition to the test of the benzopyran-4-one derivative compounds on the DNA virus infection, they were tested on the retrovirus using a GFP-expressing retrovirus to visualize the […] infection. […]. Afterward, the lentiviral stock (Lenti-GFP) was titered and used to infect the cells for analysis.
(§1) To observe the anti-virus effect of the benzopyran-4-one derivative compounds, Ad-GFP and Lenti-GFP at a low MOI of 0.5 were then applied to infect the HEK293A cells and HEK293T cells, respectively. In the prevention group, cells were treated by compounds of Compound I-1 at 0.2, 1, and 2 μM or Compound II-1 at 0.1, 0.5, 1 μM for 30 minutes before Ad-GFP and Lenti-GFP infection. In the treatment group, cells were treated by compounds of Compound I-1 at 0.2, 1, and 2 μM or Compound II-1 at 0.1, 0.5, and 1 μM for 2 hours after Ad-GFP and Lenti-GFP infection. After a total of 6 hours of compounds and virus treatments, cells were washed with Hank's buffered salt solution and a flash culture media was replaced.
(§2) 24 hours after virus infection, the effect of the benzopyran-4-one derivative compounds on the antivirus infection was recorded by observing the GFP positive cells under an inverted fluorescence microscope. The mean fluorescence intensity by flow cytometry in each plate of cells was analyzed for quantification.

[3] = system: MDA-MB-231 tumor xenograft; test: Human xenograft tumors in nude mice; type: in vivo
Text: Inhibition of the checkpoint and repair mechanisms leads to chemosensitization in cancers. […] We further treated individual cells with cisplatin in combination with several varying doses of benzopyran-4-one derivatives, and counted survival colonies to determine their ability to survive after cisplatin-induced damage. […] To investigate the chemosensitization effect of low-dose benzopyran-4-one derivatives in vivo, we established a tumor xenograft in nude mice using human MDA-MB-231 tumor cells, which are considered to be more resistant to cisplatin and are also sensitive to treatment with benzopyran-4-one derivatives, at least as compared to A549 cells (FIGS. 4, 17(a) and 17(b)). […] The pharmacokinetic data of Protoapigenone (I-1) and compound II-1 needs to be compared in future studies to determine the differences in the chemical effects of these 2 compounds in vitro and in vivo.
Human breast cancer MAD-MB-231 cells were harvested from the culture, resuspended in medium without serum at 1×10^8 cells/mL, and 0.1 mL of this suspension was subcutaneously injected into the right flank of female nude mice (BALB/cAnN-Foxn1nu/Crl Narl; purchased from the National Science Council Animal Center, Taiwan). Tumor-injected mice that successfully developed tumors that grew to approximately 50-100 mm^3 in volume were randomly sorted into groups and used for the experiments. […]

[4] = system: GFP expressing adenovirus (Ad-GFP); test: Ad-GFP infection of HEK293A cells; type: cell-based; conditions: for Ad-GFP infection: 0.2-2 μM
Text: To test the effects of anti-virus infection of benzopyran-4-one derivative compounds, a green fluorescent protein (GFP) expressing adenovirus to visualize adenovirus infection was used. To obtain the reporter virus, the GFP cDNA is amplified from pEGFP-N1 (Clontech, Accession: U55762.1) through a polymerase chain reaction with primers 5′-CACCATGGTGAGCAAGGGC-3′ [SEQ ID NO: 5] and 5′-[…]-3′ [SEQ ID NO: 6], and then cloned into pENTR™/D-TOP vector (Invitrogen). The GFP cDNA was transferred to adenovirus vector pAd/CMV/V5-DEST™ through an in vitro recombination method using LR Clonase® II after the sequence was confirmed. We selected the ampicillin- and […] clones to obtain the pAd-GFP. The pAd-GFP plasmid is then transfected into E1a and E1b expressing HEK293A cells to produce a crude GFP expression adenoviral stock (Ad-GFP). The adenovirus was amplified by infecting HEK293A cells. The adenoviral stock was titered and later used to infect the cells for the analysis.
as §1, §2

tumor xenografts = conditions: previous studies; cited from earlier work
[5] = compound alone (Control group, no DNA-damaging agent)
[6] = compound with Cisplatin (G2/M checkpoint)
[7] = compound with Hydroxyurea (S/M checkpoint)
[8] = pre-treatment, 0.2-2 μM Compound I-1 or 0.1-1 μM Compound II-1
[9] = post-treatment 2 hours after infection, 0.1-1 μM
[10] = pre-treatment 30 minutes before infection, 0.1-1 μM, MOI 0.5, 24 hours

Row | Structure (SMILES) | Percentage of EdU incorporation compared with control group (DNA replication; 4 μM) | The percentage of mitotic cells (MDA-MB-231 cells; [5]) [%] | The percentage of mitotic cells (MDA-MB-231 cells; [6]) [%] | The percentage of mitotic cells (MDA-MB-231 cells; [7]) [%] | Cancer growth [1] | MFI of GFP protein ([2]; post-treatment, 2 μM) | MFI of GFP protein [2, 8] | Cisplatin sensitivity of MDA-MB-231 tumors ([3]; 2 mg/kg (data not shown)) | Ad-GFP infection ([4]; post-treatment) | Ad-GFP infection ([4]; pre-treatment) | Size of tumor xenografts (tumor xenografts) | Toxic effects on the recipient (tumor xenografts) | Percentage of EdU incorporation compared with control group (DNA replication; 0.4 μM) | MFI of GFP protein [2, 9] | Tumor inhibitory effect ([3]; 0.2 mg/kg with 2 mg/kg cisplatin, intraperitoneally every 4 d) | MFI of GFP protein [4, 9] | Number of GFP cells [4, 9] | Mean fluorescence intensity (MFI) of GFP protein [4, 10] | Number of GFP cells [4, 10] | inhibition at 1 µM ([4]; unidentified adenovirus, HEK293-A, read-out: Virus inhibition effect) [%]
1 | O=C1C=CC(O)(c2cc(=O)c3c(O)cc(O)cc3o2)C=C1 [Compound I-1, Protoapigenone] | efficiently reduce | 23.69 ± 0.94 | 7.99 ± 0.91 | 3.40 ± 0.41 | significantly slowed cancer growth in a dose-dependent manner | showed an inhibition effect | significantly decreased | did not affect the cisplatin sensitivity | did not inhibit the Ad-GFP infection | did not prevent the Ad-GFP infection | reduce the size of tumor xenografts | without exerting toxic effects on the recipient |  |  |  |  |  |  |  | 
2 | O=C1C=CC(O)(c2cc(=O)c3c(ccc4ccccc43)o2)C=C1 [Compound II-1, 3-(1-hydroxy-4-oxo-cyclohexa-2,5-dienyl)-1H-benzo[f]chromen-1-one] |  | 12.05 ± 0.68 | 8.14 ± 0.99 | 10.49 ± 1.17 | significantly slowed cancer growth in a dose-dependent manner |  | significantly decreased |  |  |  | reduce the size of tumor xenografts | without exerting toxic effects on the recipient | efficiently reduce | significantly decreased | greater than that of cisplatin treatment alone | decreased | decreased | decreased | decreased | 50 to 99
